Values after ≈ are worked out from the molar mass of the structure shown.

In one experiment the test system is A. baumannii ATCC 17978. The experiment is described as follows: microbe, parasite or virus in culture. Format: cell-based. The note with it: Acinetobacter baumannii, ATCC17978, read-out: MIC, A. baumannii ATCC 17978.
Another experiment has as its system A. baumannii 1258916. In words: microbe, parasite or virus in culture. The note with it: Acinetobacter baumannii, 1258916, read-out: MIC, A. baumannii 1258916. The format is cell-based, Acinetobacter baumannii.
The next experiment has as its system P. aeruginosa CDC-0054. The experiment is described as follows: microbe, parasite or virus in culture. The format is cell-based. The conditions noted are these: Pseudomonas aeruginosa, CDC0054, read-out: Minimum inhibitory concentration, P. aeruginosa CDC-0054.
For a further experiment, the system named is A. baumannii ATCC 19606. In words: microbe, parasite or virus in culture. Format: cell-based. The conditions noted are these: Acinetobacter baumannii, ATCC19606, read-out: MIC, A. baumannii ATCC 19606.
In a further experiment the test system is A. baumannii CDC-0045. In words: microbe, parasite or virus in culture. Format: cell-based. The note with it: Acinetobacter baumannii, CDC0045, read-out: MIC, A. baumannii CDC-0045.
In the next experiment the test system is P. aeruginosa ATCC 35151. In words: microbe, parasite or virus in culture. The note with it: Pseudomonas aeruginosa, ATCC35151, read-out: Minimum inhibitory concentration, P. aeruginosa ATCC 35151. The format is cell-based.
Another experiment relates to P. aeruginosa CDC-0110. In words: microbe, parasite or virus in culture. The note with it: Pseudomonas aeruginosa, CDC0110, read-out: Minimum inhibitory concentration, P. aeruginosa CDC-0110. The format is cell-based.
A further experiment deals with P. aeruginosa ATCC 27853. In words: microbe, parasite or virus in culture. The note with it: Pseudomonas aeruginosa, ATCC27853, read-out: Minimum inhibitory concentration, P. aeruginosa ATCC 27853. Format: cell-based.
Experiment [1] relates to B. humptydooensis ATCC BAA-2767. The experiment is described as follows: microbe, parasite or virus in culture. Format: cell-based. The conditions noted are these: Burkholderia humptydooensis, ATCCBAA2767, read-out: Minimum inhibitory concentration (MIC), B. humptydooensis ATCC BAA-2767.
For experiment [2], the system named is B. thailandensis ATCC 700388. The experiment is described as follows: microbe, parasite or virus in culture. The format is cell-based. The conditions noted are these: Burkholderia thailandensis, ATCC700388, read-out: Minimum inhibitory concentration (MIC), B. thailandensis ATCC 700388.
In another experiment the test system is A. baumannii CDC-0036. The experiment is described as follows: microbe, parasite or virus in culture. The format is cell-based. The note with it: Acinetobacter baumannii, CDC0036, read-out: MIC, A. baumannii CDC-0036.
Experiment [3] concerns P. aeruginosa (ΔmexAB-oprM). The experiment is described as follows: Broth microdilution MIC in iron-depleted CAMHB (IDM). Format: cell-based. The conditions noted are these: Pseudomonas aeruginosa; iron-depleted CAMHB (IDM); […]; read-out: Minimum inhibitory concentration, P. aeruginosa ΔmexAB-oprM. On the technique in general: Dilution methods test growth across graded concentrations, often in twofold steps.

In the next experiment the target is A. baumannii PBP2 (Acinetobacter baumannii, UniProt D0C8Z9). In words: Bocillin-FL competition binding via gel filtration, A. baumannii PBP2. In outline:
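Enzyme was pre-incubated with rising inhibitor concentrations, then Bocillin-FL was added and incubated 15 minutes more. Bound probe was separated by gel filtration and fluorescence read. EC50 came from fitting fraction of PBP labelled versus inhibitor concentration to a Hill equation with ymin, ymax and n.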
In general terms: In gel filtration, larger molecules generally elute earlier.

The subject of the next experiment is B. pseudomallei Bp82. The experiment is described as follows: microbe, parasite or virus in culture. The conditions noted are these: Burkholderia pseudomallei, BP82, read-out: Minimum inhibitory concentration, B. pseudomallei Bp82. Format: cell-based.

Chain of A. baumannii PBP2 (D0C8Z9 whole entry): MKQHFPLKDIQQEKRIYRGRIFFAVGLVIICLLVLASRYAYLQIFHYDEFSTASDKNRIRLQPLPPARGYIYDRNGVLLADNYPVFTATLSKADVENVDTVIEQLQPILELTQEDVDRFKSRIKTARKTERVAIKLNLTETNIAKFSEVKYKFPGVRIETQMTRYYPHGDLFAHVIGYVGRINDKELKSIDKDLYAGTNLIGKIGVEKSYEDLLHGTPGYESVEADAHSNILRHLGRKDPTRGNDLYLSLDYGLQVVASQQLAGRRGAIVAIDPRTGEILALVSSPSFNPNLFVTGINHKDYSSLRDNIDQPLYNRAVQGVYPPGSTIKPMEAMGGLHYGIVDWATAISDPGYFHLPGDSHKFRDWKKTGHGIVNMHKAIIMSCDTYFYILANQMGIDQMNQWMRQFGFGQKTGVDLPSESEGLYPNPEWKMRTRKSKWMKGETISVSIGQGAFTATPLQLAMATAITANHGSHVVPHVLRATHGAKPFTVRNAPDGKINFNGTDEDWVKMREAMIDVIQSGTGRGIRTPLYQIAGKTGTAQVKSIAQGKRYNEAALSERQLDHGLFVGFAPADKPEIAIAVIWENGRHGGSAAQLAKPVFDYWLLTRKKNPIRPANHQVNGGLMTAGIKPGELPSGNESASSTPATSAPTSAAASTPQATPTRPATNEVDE

For the compound `CS(=O)(=O)N1CCN(C(=O)N[C@@H](C(=O)N[C@H]2Cc3ccc(F)c(C(=O)O)c3OB2O)c2ccc(P(=O)(O)O)c(F)c2)C1=O` (single isomer, unassigned) [Example 19], the MIC is 8 to 16 µg/mL (≈ 12.4 to 24.8 µM) in the experiment with A. baumannii ATCC 17978; over 128 µg/mL with A. baumannii 1258916; over 128 µg/mL with P. aeruginosa CDC-0054; 32 to 64 µg/mL (≈ 49.5 to 99 µM) in the experiment on A. baumannii ATCC 19606; over 128 µg/mL with A. baumannii CDC-0045; 2 to 4 µg/mL (≈ 3.09 to 6.19 µM) with P. aeruginosa ATCC 35151. In addition, the MIC in the experiment on P. aeruginosa CDC-0110 is over 128 µg/mL; with P. aeruginosa ATCC 27853, over 128 µg/mL; in experiment [1], 32 to 64 µg/mL (≈ 49.5 to 99 µM); in [2], 32 to 64 µg/mL (≈ 49.5 to 99 µM); in the experiment with A. baumannii CDC-0036, over 128 µg/mL; in [3], 32 to 64 µg/mL (≈ 49.5 to 99 µM).

On to `O=C(O)c1c(F)ccc2c1OB(O)[C@@H](NC(=O)C(NC(=O)N1CCN(Cc3ccc(O)c(O)c3Cl)C(=O)C1=O)c1ccc(P(=O)(O)O)c(F)c1)C2` (stereo partly drawn) [Example 23, (3R)-3-(2-(4-(2-chloro-3,4-dihydroxybenzyl)-2,3-dioxopiperazine-1-carboxamido)-2-(3-fluoro-4-phosphonophenyl)acetamido)-7-fluoro-2-hydroxy-3,4-dihydro-2H-benzo[e][1,2]oxaborinine-8-carboxylic acid], for which the MIC in the experiment with A. baumannii ATCC 17978, with A. baumannii 1258916, in the experiment on P. aeruginosa CDC-0054, in the experiment with A. baumannii ATCC 19606, in the experiment with A. baumannii CDC-0045 and in the experiment with P. aeruginosa ATCC 35151 was under 1 µg/mL each time. The MIC (with P. aeruginosa CDC-0110; in the experiment with P. aeruginosa ATCC 27853; in experiment [1]; in [2]; with A. baumannii CDC-0036; in experiment [3]) was under 1 µg/mL throughout. At A. baumannii PBP2, this compound showed an EC50 of under 10 µM.

As to `O=C(O)c1cccc2c1OB(O)[C@@H](NC(=O)C(NC(=O)N1CCN(Cc3ccc(O)c(O)c3Cl)C(=O)C1=O)c1ccc(P(=O)(O)O)cc1)C2` (stereo partly drawn) [Example 24, (3R)-3-(2-(4-(2-chloro-3,4-dihydroxybenzyl)-2,3-dioxopiperazine-1-carboxamido)-2-(4-phosphonophenyl)acetamido)-2-hydroxy-3,4-dihydro-2H-benzo[e][1,2]oxaborinine-8-carboxylic acid], the MIC in the experiment with A. baumannii ATCC 17978, in the experiment with A. baumannii 1258916, with P. aeruginosa CDC-0054, in the experiment on A. baumannii ATCC 19606, with A. baumannii CDC-0045 and in the experiment on P. aeruginosa ATCC 35151 was under 1 µg/mL each time. The MIC is under 1 µg/mL with P. aeruginosa CDC-0110; 2 to 4 µg/mL (≈ 2.79 to 5.58 µM) with P. aeruginosa ATCC 27853; under 1 µg/mL in [1]; under 1 µg/mL in [2]; under 1 µg/mL in the experiment on A. baumannii CDC-0036; under 1 µg/mL in [3]. For the same compound, the EC50 on A. baumannii PBP2 is 10 to 50 µM.

For the compound `O=C(NCCN1CCN(C(=O)NC(C(=O)N[C@H]2Cc3ccc(F)c(C(=O)O)c3OB2O)c2ccc(P(=O)(O)O)cc2)C(=O)C1=O)c1ccc(O)c(O)c1Cl` (stereo partly drawn) [Example 120, (3R)-3-(2-(4-(2-(2-chloro-3,4-dihydroxybenzamido)ethyl)-2,3-dioxopiperazine-1-carboxamido)-2-(4-phosphonophenyl)acetamido)-7-fluoro-2-hydroxy-3,4-dihydro-2H-benzo[e][1,2]oxaborinine-8-carboxylic acid], the MIC in the experiment on A. baumannii ATCC 17978, in the experiment on A. baumannii 1258916, in the experiment with P. aeruginosa CDC-0054, in the experiment on A. baumannii ATCC 19606, with A. baumannii CDC-0045 and with P. aeruginosa ATCC 35151 was under 1 µg/mL each time. Besides, the MIC in the experiment on P. aeruginosa CDC-0110 was under 1 µg/mL; with P. aeruginosa ATCC 27853, under 1 µg/mL; in [1], under 1 µg/mL; in experiment [2], under 1 µg/mL; with A. baumannii CDC-0036, 8 to 16 µg/mL (≈ 10.1 to 20.2 µM); in experiment [3], under 1 µg/mL. The compound further displayed an EC50 at A. baumannii PBP2 of 10 to 50 µM.

`O=C(O)c1c(F)ccc2c1OB(O)[C@@H](NC(=O)C(NC(=O)N1CCN(Cc3cc(F)c(O)c(O)c3Cl)C(=O)C1=O)c1ccc(P(=O)(O)O)cc1)C2` (stereo partly drawn) [Example 45, (3R)-3-(2-(4-(2-chloro-5-fluoro-3,4-dihydroxybenzyl)-2,3-dioxopiperazine-1-carboxamido)-2-(4-phosphonophenyl)acetamido)-7-fluoro-2-hydroxy-3,4-dihydro-2H-benzo[e][1,2]oxaborinine-8-carboxylic acid]: the MIC in the experiment on A. baumannii ATCC 17978, in the experiment on A. baumannii 1258916, with P. aeruginosa CDC-0054, in the experiment with A. baumannii ATCC 19606, in the experiment on A. baumannii CDC-0045 and in the experiment on P. aeruginosa ATCC 35151 was under 1 µg/mL throughout. The MIC (in the experiment on P. aeruginosa CDC-0110; in the experiment on P. aeruginosa ATCC 27853; in experiment [1]; in [2]; with A. baumannii CDC-0036; in experiment [3]) was under 1 µg/mL throughout. The compound also returned a 50% effective concentration (EC50) at A. baumannii PBP2 of under 10 µM.

Turning to `O=C(O)c1c(F)ccc2c1OB(O)[C@@H](NC(=O)C(NC(=O)N1CCN(Cc3ccc(O)c(O)c3Cl)C1=O)c1ccc(P(=O)(O)O)cc1)C2` (stereo partly drawn) [Example 46, (3R)-3-(2-(3-(2-chloro-3,4-dihydroxybenzyl)-2-oxoimidazolidine-1-carboxamido)-2-(4-phosphonophenyl)acetamido)-7-fluoro-2-hydroxy-3,4-dihydro-2H-benzo[e][1,2]oxaborinine-8-carboxylic acid], the MIC was 2 to 4 µg/mL (≈ 2.83 to 5.66 µM) in the experiment on P. aeruginosa CDC-0054; under 1 µg/mL in the experiment with P. aeruginosa ATCC 35151; under 1 µg/mL in the experiment with P. aeruginosa CDC-0110; 2 to 4 µg/mL (≈ 2.83 to 5.66 µM) in the experiment with P. aeruginosa ATCC 27853; under 1 µg/mL in [1]; under 1 µg/mL in [2]. Moreover, the MIC in experiment [3] was under 1 µg/mL. The EC50 at A. baumannii PBP2 fell in the range of 10 to 50 µM.

Take `O=C(O)c1c(F)ccc2c1OB(O)[C@@H](NC(=O)C(NC(=O)N1CCN(Cc3ccc(O)c(O)c3Cl)C(=O)C1=O)c1ccc(P(=O)(O)O)cc1)C2` (stereo partly drawn) [Example 8, (3R)-3-(2-(4-(2-chloro-3,4-dihydroxybenzyl)-2,3-dioxopiperazine-1-carboxamido)-2-(4-phosphonophenyl)acetamido)-7-fluoro-2-hydroxy-3,4-dihydro-2H-benzo[e][1,2]oxaborinine-8-carboxylic acid]: the MIC in the experiment on A. baumannii ATCC 17978, in the experiment with A. baumannii 1258916, with P. aeruginosa CDC-0054, in the experiment on A. baumannii ATCC 19606, with A. baumannii CDC-0045 and in the experiment with P. aeruginosa ATCC 35151 was under 1 µg/mL throughout. Besides, the MIC in the experiment on P. aeruginosa CDC-0110 is under 1 µg/mL; in the experiment on P. aeruginosa ATCC 27853, under 1 µg/mL; in experiment [1] it was under 1 µg/mL; in experiment [2], under 1 µg/mL; in the experiment with B. pseudomallei Bp82, under 1 µg/mL; in the experiment with A. baumannii CDC-0036, 2 to 4 µg/mL (≈ 2.72 to 5.44 µM). Besides, the MIC in experiment [3] was under 1 µg/mL. The compound further yielded a half-maximal effective concentration (EC50) on A. baumannii PBP2 of 10 to 50 µM.

`CS(=O)(=O)N1CCN(C(=O)NC(C(=O)N[C@H]2Cc3cccc(C(=O)O)c3OB2O)c2ccc(P(=O)(O)O)c(O)c2)C1=O` (stereo partly drawn) [Example 17, (3R)-2-hydroxy-3-(2-(3-hydroxy-4-phosphonophenyl)-2-(3-(methylsulfonyl)-2-oxoimidazolidine-1-carboxamido)acetamido)-3,4-dihydro-2H-benzo[e][1,2]oxaborinine-8-carboxylic acid] gave an EC50 on A. baumannii PBP2 of 50 to 250 µM.

For the compound `O=C(N[C@@H](C(=O)N[C@H]1Cc2cccc(C(=O)O)c2OB1O)c1ccc(P(=O)(O)O)cc1)c1ccc(O)c(O)c1Cl` [Example 49, (R)-3-((R)-2-(2-chloro-3,4-dihydroxybenzamido)-2-(4-phosphonophenyl)acetamido)-2-hydroxy-3,4-dihydro-2H-benzo[e][1,2]oxaborinine-8-carboxylic acid], the MIC was under 1 µg/mL in the experiment with A. baumannii ATCC 17978; over 128 µg/mL in the experiment with A. baumannii 1258916; under 1 µg/mL in the experiment on P. aeruginosa CDC-0054; under 1 µg/mL in the experiment with A. baumannii ATCC 19606; over 128 µg/mL in the experiment on A. baumannii CDC-0045; under 1 µg/mL with P. aeruginosa ATCC 35151. Further, the MIC was under 1 µg/mL with P. aeruginosa CDC-0110; 2 to 4 µg/mL (≈ 3.39 to 6.77 µM) in the experiment with P. aeruginosa ATCC 27853; under 1 µg/mL in experiment [1]; 2 to 4 µg/mL (≈ 3.39 to 6.77 µM) in experiment [2]; over 128 µg/mL in the experiment with A. baumannii CDC-0036; under 1 µg/mL in experiment [3]. At A. baumannii PBP2, this compound gave an EC50 of 10 to 50 µM.

As usually defined, the EC50 is the midpoint of the concentration-response curve.

Source of the values: patent US20240270762A1, “PENICILLIN-BINDING PROTEIN INHIBITORS” (priority 2021, published 2024).
